Consider 52 compounds from PubChem BioAssay AID1996.

Values after ≈ are worked out from the molar mass of the structure shown.

The conditions of the data set: buffer; pH 7.4; 200.0 µM.
The kinetic solubility is the concentration staying in solution when a stock, usually in DMSO, is diluted into the medium. In the case of `CCc1ccc(OCCCCCn2ccnc2)cc1`, the solubility (kinetic) was 19.5 µg/mL (≈ 75.5 µM).

With `COc1ccc(N(CC(=O)NC2CCCCC2)S(=O)(=O)c2cccs2)cc1`, the solubility (kinetic) amounted to 1.2 µg/mL (≈ 2.94 µM). Compared with the last compound, the solubility kinetic is about 16-fold lower.

In turn, `COc1ccc(NC(=O)Nc2cnccn2)c(OC)c1` gave a solubility (kinetic) of 3.4 µg/mL (≈ 12.4 µM).

As to `N#C/C(=C(/O)c1ccc(Cl)c([N+](=O)[O-])c1)c1nc2ccccc2[nH]1`, the solubility (kinetic) was 0.6 µg/mL (≈ 1.76 µM). In the case of `CCc1cc(=O)[nH]c(SCC(=O)Nc2cc(C)on2)n1`, the solubility (kinetic) is more than 44.1 µg/mL. As for `O=C(c1ccc([N+](=O)[O-])cc1)N1CCN(C(=O)c2ccco2)CC1`, the figure is more than 49.4 µg/mL; as for `OC1/C(=C/c2ccc(Cl)cc2Cl)N2CCC1CC2` (configuration not stated), 28 µg/mL (≈ 98.5 µM). As for `CN(C(=O)COC(=O)c1ccc(S(=O)(=O)N2CCOCC2)cc1)c1ccccc1`, the figure is 15.8 µg/mL (≈ 37.8 µM); as for `COc1ccccc1-n1cnnc1SCC(=O)N1CCOCC1`, more than 50.2 µg/mL; as for `C/C(=N/OC(=O)C1CC1)c1cc(-c2ccc(Cl)cc2)no1`, 0.4 µg/mL (≈ 1.31 µM).

`COc1ccc(Cl)cc1NC(=S)NCCN1CCOCC1` came in with a kinetic solubility of more than 49.5 µg/mL. As for `CCn1c(NC(C)=O)c(-c2ccccc2Cl)c(=O)c2ccccc21`, the figure is 49.5 µg/mL (≈ 145 µM); as for `CSc1nccc(-c2sc(SC)c(C#N)c2-c2ccccc2)n1`, less than 0.3 µg/mL; as for `Oc1ccccc1-c1nc(NCc2cccnc2)c2ccccc2n1`, less than 0.2 µg/mL. In turn, `CC1CCN(C(=O)CN2C(=O)C(=O)N(C)C2=O)c2ccccc2S1` (configuration not stated) returned a kinetic solubility of more than 52.1 µg/mL. For the compound `O=C(C1CCCC1)N1CCCC(Nc2ccc(F)cc2)C1` (configuration not stated), the kinetic solubility was more than 43.6 µg/mL. On to `CC(=O)Nc1ccc(NC(=O)COC(=O)c2cnccn2)cc1`, for which the solubility (kinetic) is more than 47.1 µg/mL. In the case of `CCC1CCC(N2CCN(c3ccc([N+](=O)[O-])cc3)CC2)CC1` (configuration not stated), the kinetic solubility amounted to 8.9 µg/mL (≈ 28 µM). In the case of `CNc1ccc(C(=O)c2ccccc2C(=O)O)cc1[N+](=O)[O-]`, the kinetic solubility is more than 45 µg/mL.

Turning to `CCOc1ncccc1C(=O)OCC(=O)c1ccc(Br)s1`, the kinetic solubility was more than 55.5 µg/mL. As for `CC1CCCCN1C(=S)NC(=O)c1ccco1` (configuration not stated), the solubility (kinetic) is more than 37.8 µg/mL. The figure for `CC(NC(=O)CCNC(=O)c1ccccc1Cl)c1ccc(-n2ccnc2)cc1` (configuration not stated) is more than 59.5 µg/mL; for `O=C(CSCc1ccc(Cl)cc1Cl)Nc1ccc(O)cc1C(=O)O` it is more than 57.9 µg/mL. On to `O=C(O)CSCC(=O)N1CCN(Cc2ccc3c(c2)OCO3)CC1`, for which the solubility (kinetic) is more than 52.9 µg/mL. The figure for `COc1ccc(Cl)cc1NC(=S)NCc1cccnc1` is more than 46.2 µg/mL; for `c1cncc(Nc2c3ccccc3nc3ccccc23)c1` it is 2 µg/mL (≈ 7.37 µM).

On to `Cc1sc2nc(COC(=O)c3ccc(O)cc3)[nH]c(=O)c2c1C`, for which the kinetic solubility came to 8 µg/mL (≈ 24.2 µM).

In the case of `O=C(Nc1ccc2c(c1)OCO2)c1ccc(CO)cc1`, the kinetic solubility was more than 40.7 µg/mL. The figure for `N#CCCN(Cc1cccs1)C(=O)c1ccc(Cl)cc1` is more than 45.7 µg/mL. As to `O=C(Nc1ccccc1)N1CCN(CCc2ccccc2)CC1`, the solubility (kinetic) came to 41.6 µg/mL (≈ 134 µM). `CC(C)(C)N(Cc1ccccc1)C(=O)CN1C(=O)c2ccccc2C1=O` displayed a solubility (kinetic) of 0.8 µg/mL (≈ 2.28 µM). The figure for `N/C(=N\O)c1ccc(Oc2ccccc2Cl)c([N+](=O)[O-])c1` is 44.1 µg/mL (≈ 143 µM); for `COc1cc(Cl)c(C)cc1NC(=O)CN1C(=O)C2CC=CCC2C1=O` (configuration not stated) it is more than 54.4 µg/mL; for `COc1ccc2nc(N3C(=O)CNC3=S)sc2c1` it is 19.5 µg/mL (≈ 69.8 µM). Compound `O=c1c2ccccc2nc(/C=C/c2ccc(F)cc2)n1-c1ccccc1O` showed a solubility (kinetic) of 5.2 µg/mL (≈ 14.5 µM). As for `O=C(CN1C(=O)c2ccccc2S1(=O)=O)Nc1ncc(Cl)cc1Cl`, the kinetic solubility is more than 57.9 µg/mL. `O=S(=O)(Nc1ccccc1O)c1ccc(Cl)nc1` yielded a kinetic solubility of 35.6 µg/mL (≈ 125 µM). Consider `O=C(c1c[nH]c2ccccc12)C(F)(F)F`, for which the solubility (kinetic) turned out to be 20.2 µg/mL (≈ 94.8 µM). This solubility kinetic is about 1.8-fold lower than that of the compound before. Compound `CCN(CC)c1ccc(C(=O)OCC(=O)Nc2cc(C)on2)cc1` came in with a solubility (kinetic) of 4.6 µg/mL (≈ 13.9 µM). As for `O=C(COC(=O)c1ccccn1)c1ccc([N+](=O)[O-])cc1`, the figure is 39.9 µg/mL (≈ 139 µM); as for `COc1ccc(C(=O)N2CCC(c3ccccc3)CC2)c(OC)c1OC`, 47.6 µg/mL (≈ 134 µM); as for `Cc1nc(SCC(N)=O)c([N+](=O)[O-])[nH]1`, more than 32.4 µg/mL.

`O=C(CCNS(=O)(=O)c1ccc(F)c(F)c1)NCCN1CCOCC1` registered a kinetic solubility of more than 56.6 µg/mL.

In turn, `COc1ccc(NC(=O)c2cccnn2)cc1` returned a solubility (kinetic) of more than 34.4 µg/mL.

On to `Fc1cc(Br)ccc1NC(=S)Nc1cccnc1`, for which the solubility (kinetic) is 44.8 µg/mL (≈ 137 µM). For `C=CCC1Cc2c(Br)cccc2C(CC=C)N1` (configuration not stated), the kinetic solubility is 13.3 µg/mL (≈ 45.5 µM). `CCCc1nc2c(=O)n(C)c(=O)nc-2n(C)n1`: the solubility (kinetic) is more than 35.3 µg/mL. As for `COc1cc2ccccc2cc1C(=O)Nc1ccc(O)cc1`, the figure is 0.8 µg/mL (≈ 2.73 µM). `CCC(=O)OCC(=O)N=c1sccn1Cc1ccc(C)cc1`: the kinetic solubility worked out at 36.4 µg/mL (≈ 114 µM). Consider `CC(C)N1C(=O)N(c2cccc(Cl)c2)C(C)(O)CC1(C)C` (configuration not stated), for which the kinetic solubility was more than 46.6 µg/mL. The figure for `CC(=O)c1ccc(NC(=O)C(C)Sc2ccccn2)cc1` (configuration not stated) is more than 45.1 µg/mL; for `COc1ccc(-n2ncc3c(=O)n(CC(C)=O)cnc32)cc1` it is more than 44.7 µg/mL.
